# Data from US8093231B2, “Sulfonylethyl phosphorodiamidates” (Telik, Inc., priority 2004, dated 2012).
# Where a name gives a salt, the structure may show the parent alone. Read-outs that look alike come from different tables or passages of the source.
# Key:
# [1] = tested on: MX-1 (human breast cancer) tumor; test: MX-1 xenograft assay, oral administration; format: in vivo, athymic nu/nu mice; settings: for inhibition of tumor growth compared to vehicle / dose dependence of tumor inhibition, oral: measured 13 days after start; for activity in MX-1 xenograft assay, oral / dose dependence of tumor inhibition, oral: gavage once/day for 5 days
# Experimental: (§1) Female athymic nu/nu mice (Harlan, Indianapolis, Ind., U.S.A. or similar vendor), 6-8 weeks old (approximately 20 g), were implanted in the mammary fat pad of the right fore flank with 20-30 mg pieces of MX-1 (human breast cancer) tumor harvested from similar mice that had previously been implanted with the MX-1 tumor. Approximately 7-10 days after tumor transplantation, when the tumor weight was approximately 50-200 mg, the mice were assigned to treatment groups. […] All compounds were active in this assay, with tumor growth inhibition compared to vehicle between 5% (compound 171A) and 99% (compound 13A), with most compounds causing at least 30% tumor growth inhibition. […] Compound 13A was tested at 25, 50, or 100 mg/Kg for 5 or 9 days, causing tumor inhibition between 19% (25 mg/Kg for 5 days) and 99% (100 mg/Kg for 9 days). Compound 70A was tested at 50, 100, and 150 mg/Kg for 5 or 12 days, causing tumor inhibition between 16% (50 mg/Kg for 5 days) and 95% (150 mg/Kg for 12 days).
# A study similar to that described in In vivo Example 1 was performed using oral administration of compounds 13A and 70A. Groups of mice were treated with compound 13A at 50, 100, or 300 mg/Kg, or compound 70A at 100, 150, 200, or 250 mg/Kg, by gavage once/day for 5 days (with vehicle control). Tumor growth inhibition was measured 13 days after the start of treatment.
# [2] = tested on: P388 murine leukemia cell line; test: Cross-resistance assay; format: cell-based; settings: P388 vs doxorubicin-resistant derivative; cross-resistant if resistance ratio approximately 2 or higher
# Description: (§2) The human cancer cell lines DLD-1 (colorectal adenocarcinoma), LNCap (prostate carcinoma), and OVCAR-3 (ovarian carcinoma) were obtained from the American Type Culture Collection, Manassas, Va., U.S.A., and HL-60 (promyeloid myelocytic leukemia), MX-1 (breast carcinoma), P388, and P388ADR from the National Cancer Institute, Bethesda, Md., U.S.A. Carboplatin, doxorubicin, and melphalan were obtained from Sigma-Aldrich Chemical Company, St. Louis, Mo., U.S.A. The CellTiter-Glo assay kit was obtained from Promega Corporation, Madison, Wis., U.S.A., and the Cellular DNA Cytometric Analysis Reagent Kit from Roche Diagnostics Corporation, Indianapolis, Ind., U.S.A. Lambda DNA was obtained from New England Biolabs, Beverly, Mass., U.S.A., and SYBR-Gold from Molecular Probes, Inc., Eugene, Oreg., U.S.A. The DNeasy Tissue Kit was obtained from Qiagen Inc., Valencia, Calif., U.S.A., and AmpliTaq Gold DNA polymerase and PCR reagents from Applied Biosystems, Foster City, Calif., U.S.A. All products were used in accordance with manufacturer's directions. All assays were conducted in triplicate wells, with dimethyl sulfoxide (DMSO) solvent control. The extent of cell growth was expressed as a percentage of the signal from the solvent control wells.
# MX-1 (breast carcinoma) = test: Cytotoxicity/growth inhibition assay, MX-1; format: cell-based, human; settings: read-out: IC50 (MX-1)
# In short: (§3)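 Test compounds in DMSO (0.1–200 μM; final DMSO 0.5%) added to freshly diluted cells (3×10^3 cells/mL MX-1 and DLD-1, 6×10^3 cells/mL LNCap), triplicate wells. Cultured ~three doubling times (3 days MX-1, 4 days DLD-1/LNCap). CellTiter-Glo luminescence, 15 min room temperature; growth expressed as % of DMSO solvent control.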
# [3] = tested on: DLD-1 (colorectal adenocarcinoma); test: Cytotoxicity/growth inhibition assay, DLD-1; format: cell-based, human; settings: read-out: IC50 (DLD-1)
# In short: as §3
# [4] = tested on: MiaPaCa-2 (human pancreatic cancer) tumor; test: MiaPaCa-2 xenograft assay, intraperitoneal administration; format: in vivo, athymic nu/nu mice; settings: 100 mg/Kg intraperitoneal once/day for 14 days; for inhibition of tumor growth compared to vehicle: measured 15 days after start
# Experimental: Male athymic nu/nu mice, 6-8 weeks old (approximately 20 g), were implanted subcutaneously in the right fore flank with 20-30 mg pieces of MiaPaCa-2 (human pancreatic cancer) tumor harvested from similar mice that had previously been implanted with the MiaPaCa-2 tumor. Approximately 7-10 days after tumor transplantation, when the tumor weight was approximately 50-200 mg, the mice were assigned to treatment groups. Groups of mice were treated with compound 13A or 70A at 100 mg/Kg by intraperitoneal injection once/day for 14 days, with vehicle control. Tumor growth inhibition was measured 15 days after the start of treatment.
# [5] = tested on: MX-1 (human breast cancer) tumor; test: MX-1 xenograft assay, intraperitoneal administration; format: in vivo, athymic nu/nu mice; settings: for tumor inhibition / dose dependence of tumor inhibition: intraperitoneal; for dose dependence of tumor inhibition: range of doses and treatment times
# Experimental: as §1
# [6] = tested on: MiaPaCa-2 (human pancreatic cancer) tumor; test: MiaPaCa-2 xenograft assay, oral administration; format: in vivo, athymic nu/nu mice; settings: 200 mg/Kg for 7 days
# DLD-1 cells = test: Cell cycle analysis; format: cell-based, human; settings: approximately IC75-85, one and two days, propidium iodide FACS
# Lambda DNA = test: DNA damage assay; format: biochemical; settings: 100 μM and 300 μM, room temperature, one day, PCR amplification
# [7] = tested on: HCT116 (human colon cancer) tumor; test: HCT116 xenograft assay, intraperitoneal administration; format: in vivo, athymic nu/nu mice; settings: for inhibition of tumor growth compared to vehicle: measured 13 days after start; for activity in HCT116 xenograft assay: intraperitoneal once/day for 11 days
# Experimental: Male athymic nu/nu mice, 6-8 weeks old (approximately 20 g), were implanted subcutaneously in the right fore flank with 20-30 mg pieces of HCT116 (human colon cancer) tumor harvested from similar mice that had previously been implanted with the HCT116 tumor. Approximately 7-10 days after tumor transplantation, when the tumor weight was approximately 50-200 mg, the mice were assigned to treatment groups. Groups of mice were treated with compounds 5A or 13A at 100 mg/Kg, or compound 70A at 150 mg/Kg, by intraperitoneal injection once/day for 11 days, with vehicle control. Tumor growth inhibition was measured 13 days after the start of treatment.
# OVCAR-3 cell line = test: Synergism assay; format: cell-based, human
# Description: as §2
# [8] = tested on: M6709 human colon carcinoma cell line selected for resistance to doxorubicin; settings: overexpresses GST P1-1; cited from earlier work
# [9] = tested on: MCF-7 human breast carcinoma cell line selected for resistance to cyclophosphamide; settings: overexpresses GST P1-1; cited from earlier work
# [10] = tested on: in vitro cell culture and tumor biopsies; settings: cited from earlier work
# [11] = tested on: LNCap (prostate carcinoma); test: Cytotoxicity/growth inhibition assay, LNCap; format: cell-based, human; settings: read-out: IC50 (LNCap)
# In short: as §3
# [12] = tested on: ovarian, breast, non-small cell lung, and colorectal cancers; settings: cited from earlier work
# [13] = tested on: M7609 engineered to have high, medium, and low levels of GST P1-1; settings: murine xenografts; cited from earlier work
# [14] = 100 mg/Kg intraperitoneal once/day for 5, 9, or 14 days
# [15] = 100 mg/Kg intraperitoneal once/day for 11 days
SMILES,"activity in MX-1 xenograft assay, oral [1]","dose dependence of tumor inhibition, oral [1]",cross-resistance with doxorubicin [2],"IC50 (MX-1 (breast carcinoma); Homo sapiens, MX1, 72 h) [µM]","IC50 ([3]; Homo sapiens, DLD-1, 96 h) [µM]",activity in MiaPaCa-2 xenograft assay [4],inhibition of tumor growth compared to vehicle [4] [%],"activity in MX-1 xenograft assay [5, 14]",dose dependence of tumor inhibition [5],"activity in MiaPaCa-2 xenograft assay, oral [6]",inhibition of tumor growth [6] [%],cell cycle effect (G2/M cycle block) (DLD-1 cells),DNA damage activity (Lambda DNA),activity in HCT116 xenograft assay [7],synergism with carboplatin (OVCAR-3 cell line),"inhibition of tumor growth compared to vehicle [7, 15] [%]",also measured
"N[C@@H](CS(=O)(=O)CCOP(=O)(N(CCCl)CCCl)N(CCCl)CCCl)C(=O)O [Compound 70A, 3-[[2-[[bis[bis(2-chloroethyl)amino]phosphinyl]oxy]ethyl]sulfonyl]-L-alanine]",active,dose-dependent tumor inhibition,not cross-resistant,36.7,10.7,active,38,active,dose-dependent tumor inhibition,active,27,induced a G2/M cycle block,only marginal DNA damage activity,active,,,inhibition of tumor growth compared to vehicle ([1]; 100 mg/Kg gavage once/day for 5 days): 36%; inhibition of tumor growth compared to vehicle ([1]; 250 mg/Kg gavage once/day for 5 days): 96%; tumor inhibition ([5]; 50 mg/Kg for 5 days): 16%; tumor inhibition ([5]; 150 mg/Kg for 12 days): 95%; inhibition of tumor growth compared to vehicle ([7]; 150 mg/Kg intraperitoneal once/day for 11 days): 26%
"N[C@@H](CCC(=O)N[C@@H](CS(=O)(=O)CCOP(=O)(N(CCCl)CCCl)N(CCCl)CCCl)C(=O)N[C@@H](C(=O)O)c1ccccc1)C(=O)O [canfosfamide, L-γ-glutamyl-3-[[2-[[bis[bis(2-chloroethyl)amino]phosphinyl]oxy]ethyl]sulfonyl]-L-alanyl-2phenyl-(2R)-glycine]",,,,,,,,,,,,induced a G2/M cycle block,only marginal DNA damage activity,,synergistic,,"potency in resistant line over parental cell line [8]: more potent; potency in resistant line over parental cell line [9]: more potent; cross-resistance to platinum, paclitaxel, doxorubicin and gemcitabine [10]: non-cross-resistant"
"CNC(=O)CS(=O)(=O)CCOP(=O)(N(CCCl)CCCl)N(CCCl)CCCl [Compound 13A, N-methyl-2-[[2-[[bis[bis(2-chloroethyl)amino]phosphinyl]oxy]ethyl]sulfonyl]acetamide]",active,dose-dependent tumor inhibition,,11.7,7.1,active,78,active,dose-dependent tumor inhibition,active,82,,,active,,43,"inhibition of tumor growth compared to vehicle ([1]; 50 mg/Kg gavage once/day for 5 days): 63%; inhibition of tumor growth compared to vehicle ([1]; 300 mg/Kg gavage once/day for 5 days): 100%; tumor growth inhibition compared to vehicle [5, 14]: 99%; tumor inhibition ([5]; 25 mg/Kg for 5 days): 19%; tumor inhibition ([5]; 100 mg/Kg for 9 days): 99%; IC50 ([11]; Homo sapiens, LNCaP, 96 h): 53.5 µM"
N[C@@H](CCC(=O)N[C@@H](CS(=O)(=O)CCOP(=O)(N(CCCl)CCCl)N(CCCl)CCCl)C(=O)N[C@@H](C(=O)O)c1ccccc1)C(=O)O [canfosfamide hydrochloride],,,,,,,,,,,,,,,,,clinical activity ([12]; colorectal and breast cancer): single agent antitumor activity; incidence of clinically significant hematological toxicity ([12]; patients treated): very low incidence; clinical activity ([12]; patients with non-small cell lung cancer and ovarian cancer): significant single agent antitumor activity and improvement in survival; potency versus level of GST P1-1 [13]: positively correlated with the level of GST P1-1
CCCCS(=O)(=O)CCOP(=O)(N(CCCl)CCCl)N(CCCl)CCCl [Compound 5A],,,,,,,,active,,,,,,active,,10,"IC50 (MX-1 (breast carcinoma); MX-1 cells, 3 days culture, CellTiter-Glo, 0.1-200 μM tested): 14.3 µM; IC50 ([3]; DLD-1 cells, 4 days culture, CellTiter-Glo, 0.1-200 μM tested): 6.6 µM; IC50 ([11]; LNCap cells, 4 days culture, CellTiter-Glo, 0.1-200 μM tested): 42.8 µM"
"O=P(OCCS(=O)(=O)Cc1ccccc1)(N(CCCl)CCCl)N(CCCl)CCCl [Compound 128A, α-[[2-[[bis[bis(2-chloroethyl)amino]phosphinyl]oxy]ethyl]sulfonyl]toluene]",,,not cross-resistant,4.5,3.2,,,active,dose-dependent tumor inhibition,,,induced a G2/M cycle block,,,synergistic,,
